# Target: T1, TPO receptor (Homo sapiens, UniProt P40238)
# T1 construct: expressed in transfected cells; host or cells: murine BaF3 cells (TPO-responsive line)
# T1 sequence (P40238 26-635): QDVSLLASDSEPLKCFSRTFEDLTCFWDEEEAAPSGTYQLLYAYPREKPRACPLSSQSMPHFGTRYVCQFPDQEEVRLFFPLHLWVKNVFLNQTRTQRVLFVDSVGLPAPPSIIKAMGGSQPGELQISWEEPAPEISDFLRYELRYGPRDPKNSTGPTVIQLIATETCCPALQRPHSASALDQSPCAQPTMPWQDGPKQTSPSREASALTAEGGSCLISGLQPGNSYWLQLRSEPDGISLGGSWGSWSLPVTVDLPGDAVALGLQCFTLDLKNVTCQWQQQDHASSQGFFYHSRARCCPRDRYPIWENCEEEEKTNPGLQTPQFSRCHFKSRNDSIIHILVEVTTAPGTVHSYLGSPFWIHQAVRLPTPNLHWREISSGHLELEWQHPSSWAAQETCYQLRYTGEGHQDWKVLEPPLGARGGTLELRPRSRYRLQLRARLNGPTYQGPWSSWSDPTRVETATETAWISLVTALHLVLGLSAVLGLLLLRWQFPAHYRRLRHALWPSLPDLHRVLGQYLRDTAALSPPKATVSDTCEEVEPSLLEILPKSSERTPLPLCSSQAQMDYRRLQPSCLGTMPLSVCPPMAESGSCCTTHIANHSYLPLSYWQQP
# Assay: Luciferase assay in TPO-responsive BaF3 cell line
# Assay type: cell-based, murine
# Conditions: at a concentration of 10 uM
# Protocol: Compounds of the present invention were tested for potency as mimetics of the TPO receptor in a Luciferase assay such as described in Lamb, et al., Nucleic Acids Research 23: 3283-3289 (1995) and Seidel, et al., Proc. Natl. Acad. Sci., USA 92: 3041-3045 (1995) by substituting a TPO-responsive BaF3 cell line (Vigon et al. Proc. Natl. Acad. Sci. USA 1992, 89, 5640-5644) for the HepG2 cells utilized therein. The murine BaF3 cells express TPO receptors and closely match the pattern of STAT (signal transducers and activators of transcription) activation observed in primary murine and human bone marrow cells in response to TPO.
structure (smiles),measurement,value
"O=C1CSC(=S)N1N=Cc1cc(Br)cc(Br)c1O [Compound A, 3-[(2-hydroxy-3,5-dibromophen-1-yl)methyleneamino]-2-thioxothiazolidin-4-one]","activation, % of control (control is the maximal response to TPO)",about 9 % of control

# Reference: patent US6720345B1, “Semicarbazone derivatives and their use as thrombopoietin mimetics” (SmithKline Beecham Corporation, priority 1999, dated 2004)
